Reference: patent publication US20120058200A1, “PROCESS FOR THE PREPARATION OF LANTHANUM CARBONATE DIHYDRATE” (Natco Pharma Limited, priority 2009, published 2012)

Columns and labels:
[1] = Phosphate binding studies of various lanthanum carbonate hydrates; conditions: for % Phosphate removed: two-fold molar excess of lanthanum carbonate hydrate over phosphate; for Peak phosphate binding: in about 7 times (so in the source)
Method: To study the phosphate binding activity of lanthanum carbonate dihdyrate, other hydrates of lanthanum carbonate (monohydrate, tetrahydrate and hexahydrate) were prepared. • a) A stock solution of standard phosphate was prepared by dissolving 13.75 g of Na2HPO4 in 1 L deionised water after adjusting the pH to 3.0 with […]. • b) Above stock solution (5 ml) was diluted with 90 ml water adjusted the pH to 3.0 with conc. HCl and made up to 100 ml with water. • c) A two-fold molar excess of Lanthanum carbonate hydrate over phosphate was weighed accurately according to the molecular weight and added to solution b). • d) Sampling was carried out at different time intervals 1, 3, 5, 7, and 10 min. […] Peak phosphate binding exceeding 99% is achieved with the dihydrate in about 7 times whereas only 81% is achieved with the tetrahydrate.

[2] = room temperature

SMILES | % Phosphate removed ([1]; 1 min, pH 3.0) | % Phosphate removed ([1]; 3 min, pH 3.0) | % Phosphate removed ([1]; 5 min, pH 3.0) | % Phosphate removed ([1]; 7 min, pH 3.0) | % Phosphate removed ([1]; 10 min, pH 3.0) | Phosphate binding speed ([1]; at all points (1-10 min), pH 3.0) | Peak phosphate binding ([1]; pH 3.0) | Performance in phosphate binding studies ([1]; over standard lanthanum carbonate tetrahydrate) | Stability [2]
O.O.O=C([O-])[O-].O=C([O-])[O-].O=C([O-])[O-].[La+3].[La+3] [Dihydrate, lanthanum carbonate dihydrate] | 94.00% | 93.00% | 93.00% | 99.45% | 99.17% | relatively very fast | exceeding 99% | improved performance | stable
O.O.O.O.O.O.O=C([O-])[O-].O=C([O-])[O-].O=C([O-])[O-].[La+3].[La+3] [Hexahydrate] | 57.10% | 60.10% | 79.73% | 76.12% | 81.15% | – | – | – | –
O.O=C([O-])[O-].O=C([O-])[O-].O=C([O-])[O-].[La+3].[La+3] [Monohydrate] | 82.73% | 90.05% | 87.10% | 91.72% | 98.30% | – | – | – | –
O.O.O.O.O=C([O-])[O-].O=C([O-])[O-].O=C([O-])[O-].[La+3].[La+3] [Tetrahydrate, lanthanum carbonate tetrahydrate] | 64.05% | 73.64% | 87.20% | 81.21% | 82.80% | – | 81% | – | –
